The subject of this assay is primary T-ALL obtained from patients. Briefly: in vitro leukemia colony assay (methylcellulose, IL-2 and PMA). It counts as cell-based, human. As to conditions: 10 ng/ml. The source says: To characterize the nature of the enhancing activity on leukemia engraftment, colony formation of leukemia clonogenic cells was examined in vitro in the presence of cord blood or cord blood derived mesenchymal stem cell conditioned medium. The in vitro leukemia colony assay is based on the ability of leukemic clonogenic cells to proliferate and form colonies in response to growth factors such as IL-2. These leukemic “progenitor” cells have been implicated in the maintenance and expansion of leukemic blast populations.
On microscopic analysis, there is a wide range of colony sizes in the samples to which conditioned medium was added. The colonies in the cultures were individually picked, pooled for similar sizes of colonies, and the number of leukemia cells counted.
Using this primary leukemia sample, leukemia colony forming assay with the addition of cord blood conditioned medium was performed. […] On day 14, leukemia colonies were individually picked. Approximately 1.4×10^6 cells were recovered, and these cells were pooled for flow cytometric analysis. The vast majority of cells are uniquely CD45^−CD7^+, CD45^−CD34^+, and CD7^+CD34^+. Collectively, the results are consistent with approximately 90% of the harvested cells from in vitro cultures having the surface phenotype CD45^−CD7^+CD34^+, identical to the atypical phenotype of the primary leukemia of this patient. […]

Experimental findings from patent US6930222B2, “In vivo animal model of human leukemia” (The Scripps Research Institute, priority 2000, dated 2005) are described below.

For the substance “recombinant IL-15: potent immunoregulatory cytokine, also a T-cell growth factor”, the “stimulation of colony formation of primary leukemia” value is reported as “about 80%”.
